Where “and” joins values, the source holds several entries; their conditions need not be identical. Identical values can stand only once.
Key:
Assay type in all cases: cell-based
[1] = tested on: primary adult skin fibroblasts; assay: Protection of fibroblasts against UV-C exposure; conditions: 37° C., 8.6 mM; for cell protection against UV (in words): UV-C 2 hours; for live cells still observed: UV-C (254 nm) for 2 hours
Description: In the following experiments, the studies were conducted at 37° C. on adult primary skin fibroblasts. The cells were exposed to UV-C irradiation for 2 hours in the presence of AAGP derivatives.

HELA cells = assay: Survival of HELA cells subjected to UVC; conditions: exposed to UVC; low concentrations; FIGS. 37, 38 and 39
Description: FIGS. 37, 38 and 39 are representations of the effects of the various derivatives on the survival of HELA cells subjected to UVC.
Studies were conducted on HELA cells, exposed to UVC, in the presence of the various synthesised compounds, at low concentrations.

[2] = tested on: primary adult skin fibroblasts; assay: Preservation of fibroblasts at low temperature (−3° C.); conditions: 8.6 mM
Description: The purpose of the following experiment is to test the preservation activity of AAGP 11 compounds at low temperatures.
The cells are thus incubated at −3° C. in the presence of the compound AAGP 11.

Row | SMILES | cell protection against UV (in words) [1] | survival of HELA cells compared to the control (in words) (HELA cells) | also measured
1 | COC(=O)[C@H](C)NC(=O)[C@H](CCCCNC(=O)C(F)(F)[C@]1(O)O[C@H](COCc2ccccc2)[C@H](OCc2ccccc2)[C@H](OCc2ccccc2)[C@H]1OCc1ccccc1)NC(=O)OCc1ccccc1 [AAGP-15] | excellent protective properties | – | –
2 | C[C@H](NC(=O)[C@@H](N)CCCCNC(=O)C(F)(F)[C@]1(O)O[C@H](CO)[C@H](O)[C@H](O)[C@H]1O)C(=O)O [Compound 11] | high level of cell | Very satisfactory results | survival ([2]; after 6 days at −3° C., serum-free medium with 0.5 mM EDTA, control cells all dead): approximately 100% survival; cell preservation activity at low temperature (in words) ([2]; −3° C., listed as AAGP-11): very high preservation activity and 11 displays a very high; live cells still observed ([1]; after 72 hours, serum-free medium with 0.5 mM EDTA, all control cells dead): 92% live cells are still; live cells still observed ([1]; after 4 days, almost all dead in the control): After 4 days, 60% live
3 | C[C@H](NC(=O)[C@@H](N)CCCCNC(=O)C(F)(F)[C@]1(O)O[C@H](CO)[C@H](O)[C@H](O)[C@H]1O)C(=O)O [Compound 12] | – | inferior results compared to the control | –
4 | C[C@H](NC(=O)[C@@H](N)CCCNC(=O)C(F)(F)[C@]1(O)O[C@H](CO)[C@H](O)[C@H](O)[C@H]1O)C(=O)O [Compound 26] | – | inferior results compared to the control | –
5 | N[C@@H](CCCCNC(=O)C(F)(F)[C@]1(O)O[C@H](CO)[C@H](O)[C@H](O)[C@H]1O)C(=O)NCC(=O)O [Compound 30] | – | improve the survival of these cells compared to the control | –

— patent US20090311203A1, “GEM-DIFLUORIDE C-GLYCOPEPTIDE COMPOUNDS, THEIR PREPARATION AND USE PARTICULARLY FOR PRESERVATION OF BIOLOGICAL MATERIALS” (INSTITUT NATIONAL DES SCIENCES APPLIQUEES DE ROUEN (INSA), priority 2006, published 2009)
